From ChEMBL document CHEMBL5143568, “Identification of novel xanthine oxidase inhibitors via virtual screening with enhanced characterization of molybdopterin binding groups” (Eur J Med Chem, 2022)

The compounds below were run against T1, Xanthine dehydrogenase/oxidase (Homo sapiens, UniProt P47989) (assay: Inhibition of xanthine oxidase (unknown origin) at 0.1 uM measured by spectrophotometric analysis relative to control).
T1 sequence (P47989 whole entry): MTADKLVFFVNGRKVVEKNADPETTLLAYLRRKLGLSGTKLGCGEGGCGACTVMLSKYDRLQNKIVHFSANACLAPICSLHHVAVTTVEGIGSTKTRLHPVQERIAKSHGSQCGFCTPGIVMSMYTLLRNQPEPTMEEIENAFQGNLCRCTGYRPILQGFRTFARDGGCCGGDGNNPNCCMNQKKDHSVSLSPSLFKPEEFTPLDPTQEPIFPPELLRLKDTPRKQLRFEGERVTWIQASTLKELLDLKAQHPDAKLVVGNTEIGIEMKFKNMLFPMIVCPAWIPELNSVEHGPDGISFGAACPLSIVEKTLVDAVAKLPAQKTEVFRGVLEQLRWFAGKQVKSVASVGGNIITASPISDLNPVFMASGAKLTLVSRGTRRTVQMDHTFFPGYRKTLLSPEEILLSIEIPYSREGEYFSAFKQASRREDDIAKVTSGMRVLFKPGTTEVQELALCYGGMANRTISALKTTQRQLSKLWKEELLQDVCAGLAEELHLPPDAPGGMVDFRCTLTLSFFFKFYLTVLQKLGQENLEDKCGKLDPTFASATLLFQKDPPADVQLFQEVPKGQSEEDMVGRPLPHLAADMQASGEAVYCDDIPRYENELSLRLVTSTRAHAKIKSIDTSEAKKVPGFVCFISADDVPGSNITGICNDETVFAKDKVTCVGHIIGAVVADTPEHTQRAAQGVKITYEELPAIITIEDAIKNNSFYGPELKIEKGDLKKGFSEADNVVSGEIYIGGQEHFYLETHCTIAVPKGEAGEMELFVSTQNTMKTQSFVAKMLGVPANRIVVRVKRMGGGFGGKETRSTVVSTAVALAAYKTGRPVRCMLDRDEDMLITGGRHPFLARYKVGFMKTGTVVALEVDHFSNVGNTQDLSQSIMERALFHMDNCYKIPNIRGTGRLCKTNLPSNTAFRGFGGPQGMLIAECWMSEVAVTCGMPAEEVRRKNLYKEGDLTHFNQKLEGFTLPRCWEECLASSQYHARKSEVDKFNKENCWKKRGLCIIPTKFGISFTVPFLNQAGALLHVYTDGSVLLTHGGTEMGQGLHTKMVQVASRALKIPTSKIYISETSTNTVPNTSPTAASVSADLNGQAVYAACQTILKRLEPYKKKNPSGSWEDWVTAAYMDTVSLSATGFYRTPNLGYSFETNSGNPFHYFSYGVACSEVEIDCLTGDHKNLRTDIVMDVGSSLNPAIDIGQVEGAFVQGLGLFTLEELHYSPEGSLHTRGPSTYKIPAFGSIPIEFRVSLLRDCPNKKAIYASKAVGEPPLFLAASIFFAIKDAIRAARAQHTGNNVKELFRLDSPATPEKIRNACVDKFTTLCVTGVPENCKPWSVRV

Structure (SMILES)	inhibition at 0.1 µM [%]
Cc1nc(-c2ccc(OCC(C)C)c(C#N)c2)sc1C(=O)O [FEBUXOSTAT]	102

What follows are compounds tested against T1, Xanthine dehydrogenase/oxidase (assay: Inhibition of xanthine oxidase (unknown origin) at 10 uM measured by spectrophotometric analysis relative to control).

Structure (SMILES)	inhibition at 10 µM [%]
NC1=NC(=O)/C(=C/c2cccc(F)c2)S1	91.5
COc1ccc(/C=C2\SC(=S)NC2=O)cc1OC	44.4
O=C1N=C(S)S/C1=C/c1cc(Cl)ccc1O	< 40
N=C1SCC(=O)N1c1ncc(OCc2ccc(Cl)cc2Cl)s1	< 40
Cc1ccc(C(=O)Oc2ccc(Br)cc2/C=C2\SC(N)=NC2=O)cc1	< 40
Cc1ccc(C(=O)Oc2cccc(/C=C3\SC(N)=NC3=O)c2)cc1	< 40
NC1=NC(=O)/C(=C/c2cc(Br)cc(Br)c2OCc2ccc(Cl)cc2Cl)S1	< 40
Cc1ccc(Cl)c2c1NC(=O)/C2=C1/SC(N)=NC1=O	< 40
COc1cc(/C=C2/SC(S)=NC2=O)ccc1Cc1ccccc1Cl	< 40
COc1ccc(/C=C2/SC(N)=NC2=O)cc1	< 40

What follows are compounds tested against T1, Xanthine dehydrogenase/oxidase (assay: Inhibition of xanthine oxidase (unknown origin) measured by spectrophotometric analysis).

Structure (SMILES)	IC50 [nM]
NC1=NC(=O)/C(=C/c2cccc(F)c2)S1	1020
Cc1nc(-c2ccc(OCC(C)C)c(C#N)c2)sc1C(=O)O [FEBUXOSTAT]	2.92
